Test results from patent US8497245B2, “Trypsin-like serine protease inhibitors, their preparation and use as selective inhibitors of the clotting factors IIa and Xa” (The Medicines Company (Leipzig) GmbH, priority 2010, dated 2013).

Experiments:
Type in all cases: biochemical
[1] = target: T1, Human plasmin (h plasmin) (Homo sapiens, UniProt P00747); assay: Inhibition of human plasmin (reference enzyme); conditions: Chromozym PL substrate
T1 construct: purchased Calbiochem
Procedure: (§1) The inhibitory effect against the individual purified enzymes was determined in analogy to a previously disclosed method (Stürzebecher et al., J. Med. Chem., 40, 3091-3099 (1997)).
(§2) The release of p-nitroaniline (p-NA, the chromogenic product of the proteolytic activity), was determined by change in absorbance at 405 nm. The equilibrium rates were used to calculate the inhibitor/enzyme dissociation constant (Ki values) by parameter fitting in accordance with the rate equation for competitive inhibition using GraFit (version 4 from Erithacus). The results are reported as Ki values (nanomolar) in table 7 and are the average of at least three determinations.
(§3) Dissociation constants were calculated as described herein.

[2] = target: T2, Human urokinase type plasminogen activator (h u-PA) (Homo sapiens, UniProt P00749); assay: Inhibition of human urokinase type plasminogen activator (reference enzyme); conditions: H-Glu-Gly-Arg-pNA substrate
T2 construct: purchased MEDAC GmbH Urokinase HS medac
Procedure: as §1, §2, §3

human Factor Xa = target: T3, human Factor Xa (Homo sapiens, UniProt P00742); assay: Inhibition constants for human factor Xa, chromogenic substrate assay; conditions: 25° C., Pefachrome FXa substrate, average of at least three determinations; read-out: Ki h FXa
T3 construct: human Factor Xa from Enzyme Research Laboratories; purchased Enzyme Research Laboratories
Procedure: as §1
(§4) 200 μL of TBS (0.05 M trishydroxymethylaminomethane; 0.154 M NaCl, 2% ethanol, pH 8.0)
as §2

[3] = target: T4, Subcomponent "r" of Human Complement Component 1 (h C1r) (Homo sapiens, UniProt P00736); assay: Inhibition of human C1r (reference enzyme); conditions: S-2314 substrate; read-out: Ki h Clr
T4 construct: purchased Calbiochem
T4 sequence (P00736 464-705 limits assumed): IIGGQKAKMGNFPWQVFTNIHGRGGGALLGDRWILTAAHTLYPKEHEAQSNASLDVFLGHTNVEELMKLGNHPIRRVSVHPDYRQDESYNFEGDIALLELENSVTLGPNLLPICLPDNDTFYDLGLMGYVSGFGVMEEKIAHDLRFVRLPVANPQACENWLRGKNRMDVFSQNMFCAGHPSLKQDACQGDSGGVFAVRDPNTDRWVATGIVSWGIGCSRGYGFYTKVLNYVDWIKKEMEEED
T4 sequence (P00736 18-463 partner limits assumed): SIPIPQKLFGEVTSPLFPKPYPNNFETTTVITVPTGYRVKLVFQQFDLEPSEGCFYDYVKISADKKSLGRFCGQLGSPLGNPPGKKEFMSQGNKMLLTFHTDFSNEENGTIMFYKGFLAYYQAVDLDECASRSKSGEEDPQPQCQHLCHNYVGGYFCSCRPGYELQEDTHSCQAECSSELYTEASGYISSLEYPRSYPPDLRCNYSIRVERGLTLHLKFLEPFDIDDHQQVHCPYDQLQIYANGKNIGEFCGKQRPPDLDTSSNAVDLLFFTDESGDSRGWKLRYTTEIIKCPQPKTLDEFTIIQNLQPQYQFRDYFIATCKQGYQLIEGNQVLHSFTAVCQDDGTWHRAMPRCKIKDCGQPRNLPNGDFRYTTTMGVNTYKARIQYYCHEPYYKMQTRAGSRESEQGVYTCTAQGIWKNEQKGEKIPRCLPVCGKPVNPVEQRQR
Procedure: as §1, §2, §3

[4] = target: T5, Human Activated Protein C (h aPC) (Homo sapiens, UniProt P04070); assay: Inhibition of human activated protein C (reference enzyme); conditions: Pefachrome PCa substrate
T5 construct: purchased Enzyme Research Laboratories
Procedure: as §1, §2, §3

[5] = target: T6, Human urinary kallikrein (h uKK) (Homo sapiens, UniProt P06870); assay: Inhibition of human urinary kallikrein (reference enzyme); conditions: S-2266 substrate
T6 construct: purchased Lee Biosolutions
Procedure: as §1, §2, §3

[6] = target: T7, Human tissue-type plasminogen activator (h t-PA) (Homo sapiens, UniProt P00750); assay: Inhibition of human tissue-type plasminogen activator (reference enzyme); conditions: Pefachrome tPA substrate; read-out: Ki h t-PA
T7 construct: purchased Boehringer Ingelheim Actilyse
Procedure: The equilibrium rates were used to calculate the inhibitor/enzyme dissociation constant (Ki values) by parameter fitting in accordance with the rate equation for competitive inhibition using GraFit (version 4 from Erithacus).
as §3

[7] = target: T8, Human plasma kallikrein (h PK) (Homo sapiens, UniProt P03952); assay: Inhibition of human plasma kallikrein (reference enzyme); conditions: S2302 substrate
T8 construct: purchased Enzyme Research Laboratories
Procedure: as §1, §2, §3

[8] = target: T9, Subcomponent "s" of Human Complement Component 1 (h C1s) (Homo sapiens, UniProt P09871); assay: Inhibition of human C1s (reference enzyme); conditions: S-2314 substrate; read-out: Ki h Cls
T9 construct: purchased Calbiochem
T9 sequence (P09871 438-688 limits assumed): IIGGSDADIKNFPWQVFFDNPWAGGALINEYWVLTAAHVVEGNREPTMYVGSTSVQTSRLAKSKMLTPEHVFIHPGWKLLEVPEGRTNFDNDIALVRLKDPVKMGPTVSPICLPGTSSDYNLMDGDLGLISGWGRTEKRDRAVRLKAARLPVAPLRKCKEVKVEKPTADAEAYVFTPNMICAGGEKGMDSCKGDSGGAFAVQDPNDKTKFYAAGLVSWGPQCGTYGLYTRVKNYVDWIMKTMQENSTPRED
T9 sequence (P09871 16-437 partner limits assumed): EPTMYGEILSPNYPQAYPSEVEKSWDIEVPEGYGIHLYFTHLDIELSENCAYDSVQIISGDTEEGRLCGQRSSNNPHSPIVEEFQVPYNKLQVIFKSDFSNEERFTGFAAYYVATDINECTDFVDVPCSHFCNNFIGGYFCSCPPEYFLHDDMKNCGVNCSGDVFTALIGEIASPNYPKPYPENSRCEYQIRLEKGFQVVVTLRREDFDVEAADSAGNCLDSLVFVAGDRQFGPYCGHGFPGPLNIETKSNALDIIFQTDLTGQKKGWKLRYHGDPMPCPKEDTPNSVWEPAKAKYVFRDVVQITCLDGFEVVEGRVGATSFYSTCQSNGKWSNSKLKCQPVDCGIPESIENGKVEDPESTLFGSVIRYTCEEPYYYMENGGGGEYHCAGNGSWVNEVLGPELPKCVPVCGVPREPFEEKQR
Procedure: as §1, §2, §3

[9] = target: T10, human factor IIa (human alpha-thrombin) (Homo sapiens, UniProt P00734); assay: Inhibition constants for human factor IIa, chromogenic substrate assay; conditions: 25° C., Pefachrome tPA substrate, average of at least three determinations; read-out: Ki h FIIa
T10 construct: human alpha-thrombin from Enzyme Research Laboratories; purchased Enzyme Research Laboratories
Procedure: as §1, §4, §2

T7 sequence (P00750 36-562): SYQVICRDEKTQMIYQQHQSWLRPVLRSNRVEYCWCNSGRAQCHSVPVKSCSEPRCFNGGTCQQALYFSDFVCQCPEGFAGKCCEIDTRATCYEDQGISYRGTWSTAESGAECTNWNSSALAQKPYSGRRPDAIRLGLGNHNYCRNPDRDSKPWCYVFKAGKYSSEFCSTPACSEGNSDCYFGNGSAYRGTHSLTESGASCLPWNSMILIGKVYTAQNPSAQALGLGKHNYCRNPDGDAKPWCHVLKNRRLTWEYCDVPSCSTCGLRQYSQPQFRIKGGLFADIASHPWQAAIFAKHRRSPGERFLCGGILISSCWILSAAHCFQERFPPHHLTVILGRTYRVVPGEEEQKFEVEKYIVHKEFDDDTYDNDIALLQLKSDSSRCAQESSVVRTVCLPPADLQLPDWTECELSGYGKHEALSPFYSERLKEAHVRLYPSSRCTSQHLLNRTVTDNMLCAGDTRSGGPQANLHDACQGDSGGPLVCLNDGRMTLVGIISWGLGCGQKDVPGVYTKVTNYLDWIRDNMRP
T8 sequence (P03952 391-638 limits assumed): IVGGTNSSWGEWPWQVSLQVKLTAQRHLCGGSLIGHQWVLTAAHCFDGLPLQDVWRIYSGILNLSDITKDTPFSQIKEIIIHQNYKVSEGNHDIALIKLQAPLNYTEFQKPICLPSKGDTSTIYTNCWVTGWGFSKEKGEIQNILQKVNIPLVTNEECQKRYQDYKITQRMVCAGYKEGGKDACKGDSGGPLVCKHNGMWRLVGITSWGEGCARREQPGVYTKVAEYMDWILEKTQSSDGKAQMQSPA
T8 sequence (P03952 20-390 partner limits assumed): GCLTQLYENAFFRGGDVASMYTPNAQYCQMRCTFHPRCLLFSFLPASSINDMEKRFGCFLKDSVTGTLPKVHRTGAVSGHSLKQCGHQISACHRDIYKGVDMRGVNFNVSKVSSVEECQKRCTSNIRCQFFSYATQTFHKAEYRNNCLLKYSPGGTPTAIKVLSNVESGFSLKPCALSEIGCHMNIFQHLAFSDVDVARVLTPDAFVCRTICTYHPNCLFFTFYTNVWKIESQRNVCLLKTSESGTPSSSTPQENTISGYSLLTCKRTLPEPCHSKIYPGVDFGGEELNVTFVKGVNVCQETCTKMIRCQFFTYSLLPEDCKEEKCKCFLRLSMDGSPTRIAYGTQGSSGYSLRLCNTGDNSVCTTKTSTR
T1 sequence (P00747 581-810 limits assumed): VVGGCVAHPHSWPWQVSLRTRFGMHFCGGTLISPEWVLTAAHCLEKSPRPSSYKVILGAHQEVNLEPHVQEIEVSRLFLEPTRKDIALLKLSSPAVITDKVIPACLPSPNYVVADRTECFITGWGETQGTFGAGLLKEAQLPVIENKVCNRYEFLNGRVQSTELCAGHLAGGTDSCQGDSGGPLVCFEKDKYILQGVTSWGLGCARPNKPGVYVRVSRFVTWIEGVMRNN
T1 sequence (P00747 97-580 partner limits assumed): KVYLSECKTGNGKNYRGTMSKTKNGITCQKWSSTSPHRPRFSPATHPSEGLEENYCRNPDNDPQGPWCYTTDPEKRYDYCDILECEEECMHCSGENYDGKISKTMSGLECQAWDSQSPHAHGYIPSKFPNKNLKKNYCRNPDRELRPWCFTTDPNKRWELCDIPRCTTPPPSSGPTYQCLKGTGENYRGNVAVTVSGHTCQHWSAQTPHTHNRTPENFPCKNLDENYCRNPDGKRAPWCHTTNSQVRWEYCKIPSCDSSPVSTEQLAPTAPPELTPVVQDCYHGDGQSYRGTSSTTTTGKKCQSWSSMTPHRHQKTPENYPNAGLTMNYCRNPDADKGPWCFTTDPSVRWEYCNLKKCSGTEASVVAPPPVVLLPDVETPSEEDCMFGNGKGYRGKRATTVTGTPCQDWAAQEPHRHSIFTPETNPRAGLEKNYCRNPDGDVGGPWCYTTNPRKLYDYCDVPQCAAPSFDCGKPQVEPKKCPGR
T3 sequence (P00742 235-488 limits assumed): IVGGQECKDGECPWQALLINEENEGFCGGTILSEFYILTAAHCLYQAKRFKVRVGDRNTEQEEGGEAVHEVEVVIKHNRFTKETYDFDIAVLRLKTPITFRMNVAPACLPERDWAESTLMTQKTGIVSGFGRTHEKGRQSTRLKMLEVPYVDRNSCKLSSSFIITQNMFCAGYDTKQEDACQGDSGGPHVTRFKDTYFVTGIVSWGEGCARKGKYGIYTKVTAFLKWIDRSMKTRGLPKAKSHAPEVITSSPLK
T3 sequence (P00742 41-179 partner limits assumed): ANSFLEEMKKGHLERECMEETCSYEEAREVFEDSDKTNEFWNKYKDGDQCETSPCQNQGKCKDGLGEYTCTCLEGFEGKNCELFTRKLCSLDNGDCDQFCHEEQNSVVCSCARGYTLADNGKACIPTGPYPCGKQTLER
T5 sequence (P04070 212-450 limits assumed): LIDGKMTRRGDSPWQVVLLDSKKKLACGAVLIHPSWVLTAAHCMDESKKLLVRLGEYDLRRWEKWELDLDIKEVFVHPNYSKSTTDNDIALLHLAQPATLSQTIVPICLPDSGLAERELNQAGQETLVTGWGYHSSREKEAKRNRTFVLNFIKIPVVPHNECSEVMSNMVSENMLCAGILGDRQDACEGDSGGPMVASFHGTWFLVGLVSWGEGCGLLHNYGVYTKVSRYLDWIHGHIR
T5 sequence (P04070 43-197 partner limits assumed): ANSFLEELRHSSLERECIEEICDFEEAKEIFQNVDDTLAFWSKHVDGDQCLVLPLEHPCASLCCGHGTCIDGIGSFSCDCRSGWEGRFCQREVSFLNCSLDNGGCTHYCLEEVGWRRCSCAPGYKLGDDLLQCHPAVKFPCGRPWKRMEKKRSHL
T6 sequence (P06870 25-262): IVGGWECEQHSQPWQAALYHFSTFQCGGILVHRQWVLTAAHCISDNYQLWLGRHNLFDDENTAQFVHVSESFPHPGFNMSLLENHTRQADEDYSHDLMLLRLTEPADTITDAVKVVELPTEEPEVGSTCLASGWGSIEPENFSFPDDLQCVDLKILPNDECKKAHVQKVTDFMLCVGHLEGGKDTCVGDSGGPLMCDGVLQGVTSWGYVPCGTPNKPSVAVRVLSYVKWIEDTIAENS

SMILES	Ki [1] [µM]	Ki [2] [µM]	Ki (human Factor Xa) [nM]	Ki [3] [µM]	Ki [4] [µM]	Ki [5] [µM]	Ki [6] [µM]	Ki [7] [nM]	Ki [8] [µM]	Ki [9] [nM]
NCc1ccc(Cl)cc1CNC(=O)[C@@H]1C[C@H](N)CN1C(=O)[C@@H](CCC(=O)N1CCOCC1)NS(=O)(=O)Cc1ccccc1 [Compound 2.24]	> 15	> 100	0.19	> 50	> 200	> 50	> 15	1210	> 60	1.28
NCc1ccc(Cl)cc1CNC(=O)[C@@H]1C[C@@H](N)CN1C(=O)[C@@H](CCC(=O)N1CCOCC1)NS(=O)(=O)Cc1ccccc1 [Compound 2.25]	> 10	> 30	1.1	> 20	> 100	> 50	> 50	2580	> 100	4.7
CN(C(=O)CC[C@@H](NS(=O)(=O)Cc1ccccc1)C(=O)N1CCC[C@H]1C(=O)NCc1cc(Cl)ccc1CN)C1CCOCC1 [Compound 2.26]	> 30	> 100	6.9	> 100	> 50	> 50	> 100	2550	> 10	1
CN(C(=O)CC[C@@H](NS(=O)(=O)Cc1ccccc1)C(=O)N1CCC[C@H]1C(=O)NCc1cc(Cl)ccc1CN)C1CCNCC1 [Compound 2.27]	> 10	> 100	18	> 100	> 50	> 100	> 100	1650	> 100	0.8
NCc1ccc(Cl)cc1CNC(=O)CC[C@@H](NS(=O)(=O)Cc1ccccc1)C(=O)N1CCC[C@H]1C(=O)NCc1cc(Cl)ccc1CN [Compound 2.30]	> 5	> 40	8.6	> 30	> 25	> 20	> 20	432	> 80	0.99
NCc1ccc(Cl)cc1CNC(=O)[C@@H]1CCCN1C(=O)[C@@H](CCC(=O)N1CCNCC1)NS(=O)(=O)Cc1ccccc1 [Compound 2.31]	> 10	> 100	21	> 100	> 100	> 100	> 20	4000	> 100	0.48
NCc1ccc(Cl)cc1CNC(=O)[C@@H]1CCCN1C(=O)[C@@H](CCC(=O)N1CCC(N)CC1)NS(=O)(=O)Cc1ccccc1 [Compound 2.32]	> 20	> 100	33	> 100	> 100	> 10	> 50	3060	> 100	0.15
NCc1ccc(Cl)cc1CNC(=O)[C@@H]1CCCN1C(=O)[C@@H](CCC(=O)N1CCOCC1)NC(=O)OCc1ccccc1 [Compound 2.33]	> 20	> 50	8.8	> 100	> 30	> 40	> 20	6060	> 50	1.4
NCc1ccc(Cl)cc1CNC(=O)[C@@H]1CCCN1C(=O)[C@@H](CC(=O)Nc1ccncc1)NS(=O)(=O)Cc1ccccc1 [Compound 2.34]	> 20	> 100	21	> 100	> 100	> 100	> 100	1760	> 100	1.7
NCc1ccc(Cl)cc1CNC(=O)[C@@H]1C[C@H](N)CN1C(=O)[C@@H](CC(=O)N1CCNCC1)NS(=O)(=O)Cc1ccccc1 [Compound 2.35]	> 3	> 20	0.79	> 100	> 100	> 50	1	351	> 15	4.4
NCc1ccc(Cl)cc1CNC(=O)[C@@H]1CCCN1C(=O)[C@@H](CC(=O)N1CCCCC1)NS(=O)(=O)Cc1ccccc1 [Compound 2.41]	8	> 50	0.12	> 50	> 100	> 40	> 15	605	> 80	0.11
NCc1ccc(Cl)cc1CNC(=O)[C@@H]1CCCN1C(=O)[C@@H](CCC(=O)N1CCOCC1)NC(=O)Cc1ccccc1 [Compound 2.42]	> 50	> 100	965	> 20	> 10	> 20	> 50	> 50000	> 100	88
NCc1ccc(Cl)cc1CNC(=O)[C@@H]1CCN1C(=O)[C@@H](CCC(=O)N1CCOCC1)NS(=O)(=O)Cc1ccccc1 [Compound 2.43]	> 40	> 20	1.7	> 30	> 100	> 10	> 80	5810	> 80	9.7
NCc1ccc(Cl)cc1CNC(=O)[C@@H]1CCN1C(=O)[C@@H](CC(=O)N1CCOCC1)NS(=O)(=O)Cc1ccccc1 [Compound 2.44]	> 10	> 50	0.87	> 100	> 100	> 20	> 35	1830	> 100	4
NCc1ccc(Cl)cc1CNC(=O)[C@@H]1CCN1C(=O)[C@@H](CC(=O)N1CCCCC1)NS(=O)(=O)Cc1ccccc1 [Compound 2.45]	> 20	> 20	0.22	> 30	> 100	> 10	> 20	1860	> 100	0.72
